Laboratory results published in patent US7045532B2 (Millennium Pharmaceuticals, Inc., priority 1999, dated 2006).

Key:
Carboxypeptidase A = target: T1, Carboxypeptidase A (Bos taurus, UniProt P00730); assay: Carboxypeptidase A activity assay; type: biochemical; details: Ki class; compounds tested in 5% DMSO, 12 concentrations
T1 sequence (P00730 111-419): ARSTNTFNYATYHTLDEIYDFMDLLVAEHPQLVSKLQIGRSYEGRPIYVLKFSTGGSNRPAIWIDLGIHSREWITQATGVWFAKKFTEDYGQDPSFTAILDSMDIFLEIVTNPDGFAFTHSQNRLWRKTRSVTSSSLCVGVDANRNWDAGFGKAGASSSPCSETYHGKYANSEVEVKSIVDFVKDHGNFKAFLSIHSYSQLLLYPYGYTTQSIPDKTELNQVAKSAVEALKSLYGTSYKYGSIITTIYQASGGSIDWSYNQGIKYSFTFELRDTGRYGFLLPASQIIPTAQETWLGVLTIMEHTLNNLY
Procedure, shortened: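 Ki obtained by correcting apparent Ki for substrate, Ki=Kiapp/(1+[S]/Km), from 12-concentration series. Enzyme activity read by absorbance at 328 nm with 5% DMSO present, EDTA stop.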

ACE-2 = target: T2, ACE-2 (Homo sapiens, UniProt Q9BYF1); assay: ACE-2 Competitive Substrate Assay (ACS Assay); type: biochemical; details: Ki class; compounds tested in 5% DMSO, 12 concentrations; read-out: Human ACE-2 Activity
T2 construct: a stop codon inserted after the serine immediately preceding the transmembrane domain; made in house; host or cells: CHO K1 cells (transient transfection, purified from conditioned medium)
T2 sequence (Q9BYF1 18-740 limits assumed): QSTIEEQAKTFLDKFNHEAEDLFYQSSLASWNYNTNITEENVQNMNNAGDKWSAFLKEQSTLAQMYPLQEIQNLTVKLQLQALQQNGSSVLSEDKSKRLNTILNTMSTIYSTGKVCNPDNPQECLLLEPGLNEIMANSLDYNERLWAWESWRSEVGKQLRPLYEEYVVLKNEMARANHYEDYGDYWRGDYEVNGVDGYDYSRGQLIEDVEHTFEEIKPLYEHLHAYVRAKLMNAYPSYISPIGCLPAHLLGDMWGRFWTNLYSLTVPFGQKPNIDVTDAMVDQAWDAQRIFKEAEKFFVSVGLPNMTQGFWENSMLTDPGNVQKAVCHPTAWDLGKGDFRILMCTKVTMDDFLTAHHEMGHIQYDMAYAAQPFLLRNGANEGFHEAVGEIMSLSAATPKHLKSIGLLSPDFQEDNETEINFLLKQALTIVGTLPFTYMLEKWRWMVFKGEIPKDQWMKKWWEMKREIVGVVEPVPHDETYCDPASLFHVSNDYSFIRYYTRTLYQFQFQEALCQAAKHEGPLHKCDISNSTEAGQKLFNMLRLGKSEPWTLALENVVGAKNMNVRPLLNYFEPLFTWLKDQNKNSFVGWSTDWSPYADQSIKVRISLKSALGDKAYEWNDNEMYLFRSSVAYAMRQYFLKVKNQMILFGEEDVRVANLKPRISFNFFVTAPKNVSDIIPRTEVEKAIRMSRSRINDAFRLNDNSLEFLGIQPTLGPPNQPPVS

ACE (Sigma, A2580) = target: T3, ACE (Sigma, A2580) (Sus scrofa, UniProt F1RRW5); assay: ACE enzymatic activity assay; type: biochemical, porcine; details: Ki class; compounds tested in 5% DMSO, 12 concentrations
T3 construct: ACE from porcine kidney; purchased Sigma A2580; host or cells: porcine kidney
T3 sequence (F1RRW5 34-1309): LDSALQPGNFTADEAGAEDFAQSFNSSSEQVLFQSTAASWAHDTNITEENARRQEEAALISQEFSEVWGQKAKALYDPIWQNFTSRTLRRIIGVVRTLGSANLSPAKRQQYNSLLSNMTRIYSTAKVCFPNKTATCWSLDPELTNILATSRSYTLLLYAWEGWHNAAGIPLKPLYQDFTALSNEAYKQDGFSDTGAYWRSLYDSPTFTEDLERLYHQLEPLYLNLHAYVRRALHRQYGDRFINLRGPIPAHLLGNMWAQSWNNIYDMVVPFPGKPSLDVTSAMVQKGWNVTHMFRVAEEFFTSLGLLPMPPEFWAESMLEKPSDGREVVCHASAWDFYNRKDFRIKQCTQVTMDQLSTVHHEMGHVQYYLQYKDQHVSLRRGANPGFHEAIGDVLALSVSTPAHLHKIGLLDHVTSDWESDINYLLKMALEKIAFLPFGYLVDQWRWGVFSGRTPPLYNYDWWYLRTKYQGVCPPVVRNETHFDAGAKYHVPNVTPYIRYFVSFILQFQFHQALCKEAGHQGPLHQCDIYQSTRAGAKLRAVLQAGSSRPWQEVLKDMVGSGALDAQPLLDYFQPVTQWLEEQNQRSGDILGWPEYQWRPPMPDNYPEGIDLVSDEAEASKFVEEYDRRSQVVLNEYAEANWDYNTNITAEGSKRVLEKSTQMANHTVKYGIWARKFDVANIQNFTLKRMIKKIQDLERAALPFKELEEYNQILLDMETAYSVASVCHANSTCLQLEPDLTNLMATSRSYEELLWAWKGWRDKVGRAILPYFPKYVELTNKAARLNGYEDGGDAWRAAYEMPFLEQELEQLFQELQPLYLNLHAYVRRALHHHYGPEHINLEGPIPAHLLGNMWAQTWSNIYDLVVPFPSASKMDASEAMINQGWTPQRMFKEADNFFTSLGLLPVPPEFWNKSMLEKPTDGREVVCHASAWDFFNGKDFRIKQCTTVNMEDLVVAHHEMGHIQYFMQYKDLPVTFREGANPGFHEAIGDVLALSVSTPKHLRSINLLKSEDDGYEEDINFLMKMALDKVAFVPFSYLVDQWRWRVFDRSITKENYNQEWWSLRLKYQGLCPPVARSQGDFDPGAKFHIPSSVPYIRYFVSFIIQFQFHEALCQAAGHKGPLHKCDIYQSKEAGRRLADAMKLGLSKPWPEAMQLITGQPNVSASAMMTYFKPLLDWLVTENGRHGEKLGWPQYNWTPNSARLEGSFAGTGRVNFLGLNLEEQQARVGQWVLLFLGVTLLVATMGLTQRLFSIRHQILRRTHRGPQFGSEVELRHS
Procedure, shortened: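 Fluorogenic substrate cleavage by 1 nM ACE, read at 320/405 nm after EDTA stop at ~30 min. Reactions at 25 °C, pH 7.5, in HEPES/NaCl/Brij-35 buffer; compounds tested at 12 concentrations in 5% DMSO.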

SMILES | Ki (Carboxypeptidase A) [µM] | Ki (ACE-2) [µM] | Ki (ACE (Sigma, A2580)) [µM]
O=C(O)C(CCc1ccccc1)N[C@@H](Cc1ccccc1)C(=O)O (stereo partly drawn) [AJ, 2-(1-Carboxy-2-phenyl-ethylamino)-4-phenyl-butync acid] | 10 to 50 | > 0.5 | > 50
CC(C)CCNC(CCc1ccccc1)C(=O)O (stereo not drawn) [DR, 2-(3-Methyl-butylamino)-4-phenyl-butync acid] | 10 to 50 | > 0.5 | > 50
CC(C)CC(NCC(C)C(=O)O)C(=O)O (stereo not drawn) [CG, 2-(2-Carboxy-propylamino)-4-methyl-pentanoic acid] | > 50 | > 0.5 | > 50
O=C(O)C(CO)N[C@@H](CCc1ccccc1)C(=O)O (stereo partly drawn) [AB, 2-(1-Carboxy-2-hydroxy-ethylamino)-4-phenyl-butync acid] | > 50 | > 0.5 | > 50
CCCCCCC(N[C@H](CCc1ccccc1)C(=O)O)C(=O)O (stereo partly drawn) [CH, 2-(1-Carboxy-3-phenyl-propylamino)-octanoicacid] | > 50 | > 0.5 | > 50
CC(N[C@@H](Cc1c[nH]cn1)C(=O)O)C(=O)O (stereo partly drawn) [N, 2-(1-Carboxy-ethylamino)-3-(1H-imidazol-4-yl)-propionic acid] | > 50 | > 0.5 | > 50
CCCC(N[C@@H](Cc1ccccc1)C(=O)O)C(=O)O (stereo partly drawn) [AA, 2-(1-Carboxy-2-phenyl-ethylamino)-pentanoicacid] | > 50 | > 0.5 | > 50
CC(C)C[C@H](NCCCc1ccccc1)C(=O)O [CY, 4-Methyl-2-(3-phenyl-propylamino)-pentanoicacid] | > 50 | > 0.5 | > 50
CC(C)C[C@H](NCC(=O)c1ccccc1)C(=O)O [DW, 4-Methyl-2-(2-oxo-2-phenyl-ethylamino)-pentanoic acid] | < 10 | > 0.5 | > 50
CC(C)CC(N[C@H](CC(=O)O)Cc1cccs1)C(=O)O (stereo partly drawn) [EI, 2-(1-Carboxymethyl-2-thiophen-2-yl-ethylamino)-4-methyl-pentanoic acid] | > 50 | > 0.5 | > 50
COc1ccc(C#CC[C@H](N[C@@H](CCc2ccccc2)C(=O)O)C(=O)O)cc1 [FR, 2-(1-Carboxy-3-phenyl-propylamino)-5-(4-methoxy-phenyl)-pent-4-ynoic acid] | > 50 | > 0.5 | > 50
C[C@H](N[C@@H](CCc1ccccc1)C(=O)O)C(=O)O [P, 2-(1-Carboxy-ethylamino)-4-phenyl-butync acid] | > 50 | > 0.5 | > 50
CC(C)C[C@H](N[C@@H](CCc1ccccc1)C(=O)O)C(N)=O [DB, 2-(1-Carbamoyl-3-methyl-butylamino)-4-phenyl-butync acid] | > 50 | > 0.5 | > 50
CCCC[C@H](N[C@@H](C(=O)O)c1ccccc1)C(=O)O [BX, 2-[(Carboxy-phenyl-methyl)-amino]-hexanoicacid] | > 50 | > 0.5 | > 50
CCC(N[C@@H](CCSC)C(=O)O)C(=O)O (stereo partly drawn) [Z, 2-(1-Carboxy-propylamino)-4-methylsulfanyl-butyncacid] | > 50 | > 0.5 | > 50
CC(N[C@H](CCc1ccccc1)C(=O)O)C(=O)O (stereo partly drawn) [AW, 2-(1-Carboxy-ethylamino)-4-phenyl-butync acid] | > 50 | > 0.5 | > 50
CC(C)C[C@@H](N[C@H](Cc1cscn1)C(=O)O)C(=O)O [CO, 2-(1-Carboxy-2-thiazol-4-yl-ethylamino)-4-methyl-pentanoic acid] | > 50 | > 0.5 | > 50
O=C(O)C(Cc1ccccc1)N[C@@H](Cc1cnc[nH]1)C(=O)O (stereo partly drawn) [EK, 2-(1-Carboxy-2-phenyl-ethylamino)-3-(3H-imidazol-4-yl)-propionicacid] | 10 to 50 | > 0.5 | 10 to 50
CC(C)C[C@H](N[C@H](CCc1ccccc1)C(=O)O)C(N)=O [DC, 2-(1-Carbamoyl-3-methyl-butylamino)-4-phenyl-butync acid] | > 50 | > 0.5 | > 50
CC(C)C[C@H](N[C@H](Cc1ccccc1)C(=O)O)C(=O)O [T, 2-(1-Carboxy-2-phenyl-ethylamino)-4-methyl-pentanoic acid] | 10 to 50 | > 0.5 | > 50
CC(C)C[C@H](NC(C(=O)O)c1ccc(C(F)(F)F)cc1)C(=O)O (stereo in doubt) [AR, 2-{[Carboxy-(4-trifluoromethyl-phenyl)-methyl]-amino}-4-methyl-pentanoic acid] | > 50 | > 0.5 | > 50
COC(=O)[C@H](CC(C)C)NC(=O)NCc1ccccc1 [DF, 2-(3-Benzyl-ureido)-4-methyl-pentanoic acidmethyl ester] | > 50 | > 0.5 | > 50
CC(C)CC(N[C@@H](Cc1cncn1COCc1ccccc1)C(N)=O)C(=O)O (single isomer, unassigned) [FB, 2-[2-(3-Benzyloxymethyl-3H-imidazol-4-yl)-1-carbamoyl-ethylamino]-4-methyl-pentanoic acid] | > 50 | > 0.5 | > 50
CC(NC(Cc1cccs1)C(=O)O)C(=O)O (stereo not drawn) [AH, 2-(1-Carboxy-ethylamino)-3-thiophen-2-yl-propionic acid] | > 50 | > 0.5 | > 50
CCCC(NC(Cc1cccs1)C(=O)O)C(=O)O (stereo not drawn) [AI, 2-(1-Carboxy-2-thiophen-2-yl-ethylamino)-pentanoic acid] | > 50 | > 0.5 | > 50
CCCC(N[C@H](Cc1c[nH]c2ccccc12)C(=O)O)C(=O)O (stereo partly drawn) [X, 2-[1-Carboxy-2-(1H-indol-3-yl)-ethylamino]-pentanoic acid] | > 50 | > 0.5 | > 50
CSCC[C@H](NC(CCc1ccccc1)C(=O)O)C(=O)O (stereo partly drawn) [Y, 2-(1-Carboxy-3-methylsulfanyl-propylamino)-4-phenyl-butync acid] | > 50 | > 0.5 | > 50
CC(C)CC(N[C@@H](Cc1c[nH]cn1)C(=O)O)C(=O)O (stereo in doubt) [AE, 2-[1-Carboxy-2-(1H-imidazol-4-yl)-ethylamino]4-methyl-pentanoic acid] | > 50 | > 0.5 | > 50
CCC(NC(Cc1c[nH]c2ccccc12)C(=O)O)C(=O)O (stereo not drawn) [W, 2-[1-Carboxy-2-(1H-indol-3-yl)-ethylamino]-butync acid] | > 50 | > 0.5 | > 50
CC(C)CC(N[C@H](CCc1ccccc1)C(=O)O)C(=O)O (stereo partly drawn) [CM, 2-(1-Carboxy-3-phenyl-propylamino)-4-methyl-pentanoic acid] | > 50 | > 0.5 | > 50
